Test results: patent US8338598B2, “Herbicidal pyrido[2,3-B]pyrazines and their use as herbicides” (Syngenta Limited, priority 2008, dated 2012)

Columns and labels:
Type in all cases: in vivo
Solanum nigrum [1] = assay: Example B2 herbicidal action, post-emergence, pots in glasshouse; conditions: evaluated after 13 days, 10=total damage to plant, 0=no damage to plant
Description: (§1) Seeds of a variety of test species were sown in standard soil in pots. After cultivation for one day (pre-emergence) or after 8 days cultivation (post-emergence) under controlled conditions in a glasshouse (at 24/16° C., day/night; 14 hours light; 65% humidity), the plants were sprayed with an aqueous spray solution derived from the formulation of the technical active ingredient in acetone/water (50:50) solution containing 0.5% Tween 20 (polyoxyethelyene sorbitan monolaurate, CAS RN 9005-64-5). The test plants were then grown in a glasshouse under controlled conditions in a glasshouse (at 24/16° C., day/night; 14 hours light; 65% humidity) and watered twice daily. After 13 days, the test was evaluated (10=total damage to plant; 0=no damage to plant).

Echinochloa crus-galli [2] = assay: as above; conditions: evaluated after 13 days, 10=total damage to plant, 0=no damage to plant
Description: as §1

Amaranthus retroflexus [3] = assay: as above; conditions: evaluated after 13 days, 10=total damage to plant, 0=no damage to plant
Description: as §1

Ipomea hederaceae [4] = assay: as above; conditions: evaluated after 13 days, 10=total damage to plant, 0=no damage to plant
Description: as §1

Setaria faberi [5] = assay: as above; conditions: evaluated after 13 days, 10=total damage to plant, 0=no damage to plant
Description: as §1

Solanum nigrum [6] = assay: Example B2 herbicidal action, pre-emergence, pots in glasshouse; conditions: evaluated after 13 days, 10=total damage to plant, 0=no damage to plant
Description: as §1

Echinochloa crus-galli [7] = assay: as above; conditions: evaluated after 13 days, 10=total damage to plant, 0=no damage to plant
Description: as §1

Amaranthus retroflexus [8] = assay: as above; conditions: evaluated after 13 days, 10=total damage to plant, 0=no damage to plant
Description: as §1

Ipomea hederaceae [9] = assay: as above; conditions: evaluated after 13 days, 10=total damage to plant, 0=no damage to plant
Description: as §1

Setaria faberi [10] = assay: as above; conditions: evaluated after 13 days, 10=total damage to plant, 0=no damage to plant
Description: as §1

test plants = assay: Example B1 herbicidal action, post-emergence, overall statement on the test plants; conditions: Example B1 protocol, 1000 g/ha, result in words
Description: Seeds of a variety of test species were sown in sterilised standard soil in seed trays each having 96 cells. After cultivation for 8 to 9 days cultivation (post-emergence) under controlled conditions in a climatic chamber (cultivation at 23/17° C., day/night; 13 hours light; 50-60% humidity), the plants were treated with an aqueous spray solution of 1000 mg/l of the active ingredient dissolved in 10% DMSO (dimethyl sulfoxide, CAS RN 67-68-5) as a solvent, equivalent to 1000 g/ha. The plants were grown in the climatic chamber after application at (24/19° C., day/night; 13 hours light; 50-60% humidity) and watered twice daily. After 9 days until the test was evaluated (10=total damage to plant, 0=no damage to plant)

## CC(C)C(=O)Oc1c(-c2c(C(F)(F)F)nn(C)c2OC(F)F)c(=O)n(CC(F)F)c2nccnc12 [Compound B24, isobutyric acid 7-(5-difluoromethoxy-1-methyl-3-trifluoromethyl-1H-pyrazol-4-yl)-5-(2,2-difluoro-ethyl)-6-oxo-5,6-dihydro-pyrido[2,3-b]pyrazin-8-yl ester]
Solanum nigrum [1]; 1000 g/ha
  SOLNI, damage to plant: 10
Echinochloa crus-galli [2]; 1000 g/ha
  ECHCG, damage to plant: 8
Amaranthus retroflexus [3]; 1000 g/ha
  AMARE, damage to plant: 9
Ipomea hederaceae [4]; 1000 g/ha
  IPOHE, damage to plant: 8
Setaria faberi [5]; 1000 g/ha
  SETFA, damage to plant: 8
Solanum nigrum [6]; 1000 g/ha
  SOLNI, damage to plant: 8
Echinochloa crus-galli [7]; 1000 g/ha
  ECHCG, damage to plant: 8
Amaranthus retroflexus [8]; 1000 g/ha
  AMARE, damage to plant: 10
Ipomea hederaceae [9]; 1000 g/ha
  IPOHE, damage to plant: 5
Setaria faberi [10]; 1000 g/ha
  SETFA, damage to plant: 7

## CS(=O)(=O)Oc1c(-c2ncc(Cl)cc2Cl)c(=O)[nH]c2nccnc12 [Compound A4, methanesulfonic acid 7-(3,5-dichloro-pyrid-2-yl)-6-oxo-5,6-dihydro-pyrido[2,3-b]pyrazin-8-yl ester]
Test plants
  damage to the test plants: little or no damage

## CCn1c(=O)c(-c2c(Cl)cncc2Cl)c(OC(=O)C(C)(C)C)c2nccnc21 [Compound A10, 2,2-Dimethyl-propionic acid 7-(3,5-dichloro-pyrid-4-yl)-5-ethyl-6-oxo-5,6-dihydro-pyrido[2,3-b]pyrazin-8-yl ester]
Solanum nigrum [1]; 1000 g/ha
  SOLNI, damage to plant: 9
Echinochloa crus-galli [2]; 1000 g/ha
  ECHCG, damage to plant: 7
Amaranthus retroflexus [3]; 1000 g/ha
  AMARE, damage to plant: 9
Ipomea hederaceae [4]; 1000 g/ha
  IPOHE, damage to plant: 8
Setaria faberi [5]; 1000 g/ha
  SETFA, damage to plant: 6
Solanum nigrum [6]; 1000 g/ha
  SOLNI, damage to plant: 2
Echinochloa crus-galli [7]; 1000 g/ha
  ECHCG, damage to plant: 5
Amaranthus retroflexus [8]; 1000 g/ha
  AMARE, damage to plant: 0
Ipomea hederaceae [9]; 1000 g/ha
  IPOHE, damage to plant: 2
Setaria faberi [10]; 1000 g/ha
  SETFA, damage to plant: 1

## Cc1cc(-c2c(OC(=O)C(C)C)c3nccnc3[nH]c2=O)on1 [Compound B16]
Test plants
  damage to the test plants: little or no damage

## Cc1cc(-c2c(OC(=O)C(C)(C)C)c3nccnc3[nH]c2=O)on1 [Compound B17]
Test plants
  damage to the test plants: little or no damage

## CC(C)C(=O)Oc1c(-c2ncc(Cl)cc2Cl)c(O)nc2nccnc12 [Compound A5, isobutyric acid 7-(3,5-dichloro-pyrid-2-yl)-6-oxo-5,6-dihydro-pyrido[2,3-b]pyrazin-8-yl ester]
Test plants
  damage to the test plants: little or no damage

## Cc1nc(Cl)sc1-c1c(O)c2nccnc2[nH]c1=O [Compound B1, 7-(2-chloro-4-methyl-thiazol-5-yl)-8-hydroxy-5H-pyrido[2,3-b]pyrazin-6-one]
Test plants
  damage to the test plants: little or no damage

## Cn1nc(-c2c(O)c3nccnc3n(CC(F)F)c2=O)c(C(F)(F)F)n1 [Compound B30]
Solanum nigrum [1]; 1000 g/ha
  SOLNI, damage to plant: 9
Echinochloa crus-galli [2]; 1000 g/ha
  ECHCG, damage to plant: 6
Amaranthus retroflexus [3]; 1000 g/ha
  AMARE, damage to plant: 9
Ipomea hederaceae [4]; 1000 g/ha
  IPOHE, damage to plant: 8
Setaria faberi [5]; 1000 g/ha
  SETFA, damage to plant: 7
Solanum nigrum [6]; 1000 g/ha
  SOLNI, damage to plant: 2
Echinochloa crus-galli [7]; 1000 g/ha
  ECHCG, damage to plant: 1
Amaranthus retroflexus [8]; 1000 g/ha
  AMARE, damage to plant: 7
Ipomea hederaceae [9]; 1000 g/ha
  IPOHE, damage to plant: 3
Setaria faberi [10]; 1000 g/ha
  SETFA, damage to plant: 2

## Cn1c(=O)c(-c2c(Cl)cncc2Cl)c(OC(=O)C(C)(C)C)c2nccnc21 [Compound A9, 2,2-Dimethyl-propionic acid 7-(3,5-dichloro-pyrid-4-yl)-5-methyl-6-oxo-5,6-dihydro-pyrido[2,3-b]pyrazin-8-yl ester]
Solanum nigrum [1]; 1000 g/ha
  SOLNI, damage to plant: 8
Echinochloa crus-galli [2]; 1000 g/ha
  ECHCG, damage to plant: 7
Amaranthus retroflexus [3]; 1000 g/ha
  AMARE, damage to plant: 8
Ipomea hederaceae [4]; 1000 g/ha
  IPOHE, damage to plant: 8
Setaria faberi [5]; 1000 g/ha
  SETFA, damage to plant: 4
Solanum nigrum [6]; 1000 g/ha
  SOLNI, damage to plant: 1
Echinochloa crus-galli [7]; 1000 g/ha
  ECHCG, damage to plant: 5
Amaranthus retroflexus [8]; 1000 g/ha
  AMARE, damage to plant: 0
Ipomea hederaceae [9]; 1000 g/ha
  IPOHE, damage to plant: 5
Setaria faberi [10]; 1000 g/ha
  SETFA, damage to plant: 0

## CC(C)(C)C(=O)Oc1c(-c2cnc(Cl)cc2Cl)c(=O)n(CC(F)F)c2nccnc12 [Compound A20, 2,2-Dimethyl-propionic acid 7-(4,6-dichloro-pyrid-3-yl)-5-(2,2-difluoro-ethyl)-6-oxo-5,6-dihydro-pyrido[2,3-b]pyrazin-8-yl ester]
Solanum nigrum [1]; 250 g/ha
  SOLNI, damage to plant: 10
Echinochloa crus-galli [2]; 250 g/ha
  ECHCG, damage to plant: 7
Amaranthus retroflexus [3]; 250 g/ha
  AMARE, damage to plant: 10
Ipomea hederaceae [4]; 250 g/ha
  IPOHE, damage to plant: 10
Setaria faberi [5]; 250 g/ha
  SETFA, damage to plant: 2
Solanum nigrum [6]; 250 g/ha
  SOLNI, damage to plant: 1
Echinochloa crus-galli [7]; 250 g/ha
  ECHCG, damage to plant: 3
Amaranthus retroflexus [8]; 250 g/ha
  AMARE, damage to plant: 1
Ipomea hederaceae [9]; 250 g/ha
  IPOHE, damage to plant: 0
Setaria faberi [10]; 250 g/ha
  SETFA, damage to plant: 0

## Cc1cc(-c2c(OC(=O)C(C)(C)C)c3nccnc3[nH]c2=O)n2nc(C)cc2n1 [Compound C2]
Test plants
  damage to the test plants: little or no damage

## Cc1cc(-c2c(O)c3nccnc3[nH]c2=O)on1 [Compound B13]
Test plants
  damage to the test plants: little or no damage

## CC(C)C(=O)Oc1c(-c2nn(C)nc2C(F)(F)F)c(=O)[nH]c2nccnc12 [Compound B28]
Solanum nigrum [1]; 1000 g/ha
  SOLNI, damage to plant: 1
Echinochloa crus-galli [2]; 1000 g/ha
  ECHCG, damage to plant: 0
Amaranthus retroflexus [3]; 1000 g/ha
  AMARE, damage to plant: 0
Ipomea hederaceae [4]; 1000 g/ha
  IPOHE, damage to plant: 0
Setaria faberi [5]; 1000 g/ha
  SETFA, damage to plant: 1
Solanum nigrum [6]; 1000 g/ha
  SOLNI, damage to plant: 0
Echinochloa crus-galli [7]; 1000 g/ha
  ECHCG, damage to plant: 0
Amaranthus retroflexus [8]; 1000 g/ha
  AMARE, damage to plant: 7
Ipomea hederaceae [9]; 1000 g/ha
  IPOHE, damage to plant: 0
Setaria faberi [10]; 1000 g/ha
  SETFA, damage to plant: 0

## CC(C)C(=O)Oc1c(-c2cc(C(F)(F)F)no2)c(=O)[nH]c2nccnc12 [Compound B7, isobutyric acid 6-hydroxy-7-(3-trifluoromethyl-isoxazol-5-yl)-pyrido[2,3-b]pyrazin-8-yl ester]
Test plants
  damage to the test plants: little or no damage

## Cc1cc(-c2c(OC(=O)C(C)(C)C)c3nccnc3[nH]c2=O)[nH]n1 [Compound B19]
Test plants
  damage to the test plants: little or no damage

## CC(C)(C)C(=O)Oc1c(-c2c(Cl)ccnc2Cl)c(=O)n(CC(F)F)c2nccnc12 [Compound A18, 2,2-Dimethyl-propionic acid 7-(2,4-dichloro-pyrid-3-yl)-5-(2,2-difluoro-ethyl)-6-oxo-5,6-dihydro-pyrido[2,3-b]pyrazin-8-yl ester]
Solanum nigrum [1]; 1000 g/ha
  SOLNI, damage to plant: 9
Echinochloa crus-galli [2]; 1000 g/ha
  ECHCG, damage to plant: 7
Amaranthus retroflexus [3]; 1000 g/ha
  AMARE, damage to plant: 10
Ipomea hederaceae [4]; 1000 g/ha
  IPOHE, damage to plant: 9
Setaria faberi [5]; 1000 g/ha
  SETFA, damage to plant: 7
Solanum nigrum [6]; 1000 g/ha
  SOLNI, damage to plant: 9
Echinochloa crus-galli [7]; 1000 g/ha
  ECHCG, damage to plant: 7
Amaranthus retroflexus [8]; 1000 g/ha
  AMARE, damage to plant: 6
Ipomea hederaceae [9]; 1000 g/ha
  IPOHE, damage to plant: 6
Setaria faberi [10]; 1000 g/ha
  SETFA, damage to plant: 5

## CC(C)(C)C(=O)Oc1c(-c2c(Cl)ccnc2Cl)c(=O)[nH]c2nccnc12 [Compound A17, 2,2-Dimethyl-propionic acid 7-(2,4-dichloro-pyrid-3-yl)-6-oxo-5,6-dihydro-pyrido[2,3-b]pyrazin-8-yl ester]
Test plants
  damage to the test plants: little or no damage

## Oc1nc2nccnc2c(O)c1-c1ncc(Cl)cc1Cl [Compound A1, 7-(3,5-dichloro-pyrid-2-yl)-pyrido[2,3-b]pyrazine-6,8-diol]
Test plants
  damage to the test plants: little or no damage

## Cc1cc(-c2c(O)c3nccnc3[nH]c2=O)n2nc(C)cc2n1 [Compound C1]
Test plants
  damage to the test plants: little or no damage

## Cc1cc(-c2c(O)c3nccnc3[nH]c2=O)[nH]n1 [Compound B14]
Test plants
  damage to the test plants: little or no damage

## Cc1noc(-c2c(OC(=O)C(C)C)c3nccnc3n(C)c2=O)n1 [Compound B6, isobutyric acid 5-methyl-7-(3-methyl-1,2,4-oxadiazol-5-yl)-6-oxo-5,6-dihydro-pyrido[2,3-b]pyrazin-8-yl ester]
Test plants
  damage to the test plants: little or no damage

## Cc1cc(-c2c(OC(=O)C(C)C)c3nccnc3[nH]c2=O)[nH]n1 [Compound B18]
Test plants
  damage to the test plants: little or no damage

## O=c1[nH]c2nccnc2c(O)c1-c1ncc(Cl)cc1F [Compound A28]
Test plants
  damage to the test plants: little or no damage

## CCOC(=O)Oc1c(-c2ncc(Cl)cc2Cl)c(=O)[nH]c2nccnc12 [Compound A3, Carbonic acid 7-(3,5-dichloro-pyrid-2-yl)-6-oxo-5,6-dihydro-pyrido[2,3-b]pyrazin-8-yl ester ethyl ester]
Test plants
  damage to the test plants: little or no damage

## Cc1cc(-c2c(OC(=O)C(C)(C)C)c3nccnc3n(C)c2=O)n2nc(C)cc2n1 [Compound C3]
Test plants
  damage to the test plants: little or no damage

## O=c1[nH]c2nccnc2c(O)c1-c1ccno1 [Compound B15]
Test plants
  damage to the test plants: little or no damage

## O=c1[nH]c2nccnc2c(O)c1-c1ncc(C(F)(F)F)cc1Cl [Compound A29]
Test plants
  damage to the test plants: little or no damage

## CCn1c(=O)c(-c2cc(C)no2)c(OC(=O)C(C)(C)C)c2nccnc21 [Compound B20]
Test plants
  damage to the test plants: little or no damage

## CCn1c(=O)c(-c2cc(C)no2)c(OC(=O)C(C)C)c2nccnc21 [Compound B21]
Test plants
  damage to the test plants: little or no damage

## CCOc1c(-c2cc(C)n(CC)n2)c(=O)n(CC)c2nccnc12 [Compound B22]
Test plants
  damage to the test plants: little or no damage
